Test system: 857933-349-R-J2-PDC complex spheroids, viability
Test: Anticancer human tumor 857933-349-R-J2-PDC patient-derived colon adenocarcinoma cell line growth inhibition [GQUAD]
Details: for IC50: curve of first compound; for viability, T/C: stronger effect = lower value
In short: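 Viability of tumor cells grown as complex spheroids with endothelial and stromal cells, exposed to drug combinations. Top concentration at or near clinical Cmax (else 10 microM), diluted in half-log increments.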

[1] = second compound 0.0316 µM, first compound 0.0316 µM
[2] = second compound 0.0316 µM, first compound 0.316 µM
[3] = second compound 0.1 µM, first compound 0.0316 µM
[4] = second compound 0.1 µM, first compound 0.316 µM
[5] = second compound 0.316 µM, first compound 0.0316 µM
[6] = second compound 0.316 µM, first compound 0.316 µM
[7] = second compound 1 µM, first compound 0.0316 µM
[8] = second compound 1 µM, first compound 0.316 µM
[9] = second compound 3.16 µM, first compound 0.0316 µM
[10] = second compound 3.16 µM, first compound 0.316 µM
[11] = second compound 10 µM, first compound 0.0316 µM
[12] = second compound 10 µM, first compound 0.316 µM
[13] = second compound 0.0316 µM, first compound 0.1 µM
[14] = second compound 0.0316 µM, first compound 1 µM
[15] = second compound 0.0316 µM, first compound 3.16 µM
[16] = second compound 0.0316 µM, first compound 10 µM
[17] = second compound 0.1 µM, first compound 0.1 µM
[18] = second compound 0.1 µM, first compound 1 µM
[19] = second compound 0.1 µM, first compound 3.16 µM
[20] = second compound 0.1 µM, first compound 10 µM
[21] = second compound 0.316 µM, first compound 0.1 µM
[22] = second compound 0.316 µM, first compound 1 µM
[23] = second compound 0.316 µM, first compound 3.16 µM
[24] = second compound 0.316 µM, first compound 10 µM
[25] = second compound 1 µM, first compound 0.1 µM
[26] = second compound 1 µM, first compound 1 µM
[27] = second compound 1 µM, first compound 3.16 µM
[28] = second compound 1 µM, first compound 10 µM
[29] = second compound 3.16 µM, first compound 0.1 µM
[30] = second compound 3.16 µM, first compound 1 µM
[31] = second compound 3.16 µM, first compound 3.16 µM
[32] = second compound 3.16 µM, first compound 10 µM
[33] = second compound 10 µM, first compound 0.1 µM
[34] = second compound 10 µM, first compound 1 µM
[35] = second compound 10 µM, first compound 3.16 µM
[36] = second compound 10 µM, first compound 10 µM
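Further: spheroids exposed to compounds for one week before readout.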
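Wherever viability, T/C is given: percent viability relative to vehicle DMSO wells taken as 100%.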

Cn1ncnc1[C@H]1c2n[nH]c(=O)c3cc(F)cc(c23)N[C@@H]1c1ccc(F)cc1 + Cc1cnc(CNC(=O)c2c(=O)c3ccc(N4CCCN(C)CC4)nc3n3c2sc2ccccc23)cn1
IC50 (second compound 0.0316 µM): > 0.316 µM | IC50 (second compound 0.1 µM): > 0.316 µM | IC50 (second compound 0.316 µM): < 0.000999 µM | IC50 (second compound 1 µM): < 0.000999 µM | IC50 (second compound 3.16 µM): < 0.000999 µM | IC50 (second compound 10 µM): < 0.000999 µM | viability, T/C (second compound 0.0316 µM, first compound 0.000999 µM): 88.5% | viability, T/C (second compound 0.0316 µM, first compound 0.00316 µM): 89.1% | viability, T/C (second compound 0.0316 µM, first compound 0.00999 µM): 93.4% | viability, T/C [1]: 95% | viability, T/C (second compound 0.0316 µM, first compound 0.0999 µM): 88.9% | viability, T/C [2]: 81.7% | viability, T/C (second compound 0.1 µM, first compound 0.000999 µM): 59.6% | viability, T/C (second compound 0.1 µM, first compound 0.00316 µM): 73.6% | viability, T/C (second compound 0.1 µM, first compound 0.00999 µM): 62.5% | viability, T/C [3]: 71.9% | viability, T/C (second compound 0.1 µM, first compound 0.0999 µM): 73.5% | viability, T/C [4]: 65.6% | viability, T/C (second compound 0.316 µM, first compound 0.000999 µM): 28.8% | viability, T/C (second compound 0.316 µM, first compound 0.00316 µM): 27.8% | viability, T/C (second compound 0.316 µM, first compound 0.00999 µM): 27.1% | viability, T/C [5]: 22.5% | viability, T/C (second compound 0.316 µM, first compound 0.0999 µM): 29.8% | viability, T/C [6]: 31.5% | viability, T/C (second compound 1 µM, first compound 0.000999 µM): 7% | viability, T/C (second compound 1 µM, first compound 0.00316 µM): 5.78% | viability, T/C (second compound 1 µM, first compound 0.00999 µM): 5.4% | viability, T/C [7]: 5.4% | viability, T/C (second compound 1 µM, first compound 0.0999 µM): 5.1% | viability, T/C [8]: 5.12% | viability, T/C (second compound 3.16 µM, first compound 0.000999 µM): 2.09% | viability, T/C (second compound 3.16 µM, first compound 0.00316 µM): 2.13% | viability, T/C (second compound 3.16 µM, first compound 0.00999 µM): 2.38% | viability, T/C [9]: 2.9% | viability, T/C (second compound 3.16 µM, first compound 0.0999 µM): 3.1% | viability, T/C [10]: 2.73% | viability, T/C (second compound 10 µM, first compound 0.000999 µM): 1.74% | viability, T/C (second compound 10 µM, first compound 0.00316 µM): 2.35% | viability, T/C (second compound 10 µM, first compound 0.00999 µM): 2.39% | viability, T/C [11]: 2.68% | viability, T/C (second compound 10 µM, first compound 0.0999 µM): 2.08% | viability, T/C [12]: 2.52%

O=c1[nH]cc(F)c(=O)[nH]1 + CN(C)c1ccc(Nc2c3ccc(NC(=O)CCN4CCCC4)cc3nc3cc(NC(=O)CCN4CCCC4)ccc23)cc1
IC50 (second compound 0.0316 µM): 7.51 µM | IC50 (second compound 0.1 µM): 9.41 µM | IC50 (second compound 0.316 µM): 8.13 µM | IC50 (second compound 1 µM): 7.14 µM | IC50 (second compound 3.16 µM): 7.56 µM | IC50 (second compound 10 µM): 9.08 µM | viability, T/C [1]: 104% | viability, T/C [13]: 96.8% | viability, T/C [2]: 97% | viability, T/C [14]: 88.7% | viability, T/C [15]: 60.6% | viability, T/C [16]: 46.5% | viability, T/C [3]: 103% | viability, T/C [17]: 105% | viability, T/C [4]: 91.7% | viability, T/C [18]: 86.4% | viability, T/C [19]: 61.3% | viability, T/C [20]: 50% | viability, T/C [5]: 102% | viability, T/C [21]: 96.7% | viability, T/C [6]: 100% | viability, T/C [22]: 83.7% | viability, T/C [23]: 64.8% | viability, T/C [24]: 46.7% | viability, T/C [7]: 95.3% | viability, T/C [25]: 91.8% | viability, T/C [8]: 95.6% | viability, T/C [26]: 77.7% | viability, T/C [27]: 63.6% | viability, T/C [28]: 44.6% | viability, T/C [9]: 92.9% | viability, T/C [29]: 80% | viability, T/C [10]: 92.7% | viability, T/C [30]: 75.1% | viability, T/C [31]: 61.7% | viability, T/C [32]: 46.3% | viability, T/C [11]: 70.9% | viability, T/C [33]: 78.9% | viability, T/C [12]: 77.2% | viability, T/C [34]: 74.4% | viability, T/C [35]: 61.4% | viability, T/C [36]: 49%

CC(C)n1c(=O)n(C)c2cnc3cc(F)c(-c4ccc(OCCCN5CCCCC5)nc4)cc3c21 + CN(C)c1ccc(Nc2c3ccc(NC(=O)CCN4CCCC4)cc3nc3cc(NC(=O)CCN4CCCC4)ccc23)cc1
IC50 (second compound 0.0316 µM): > 10 µM | IC50 (second compound 0.1 µM): > 10 µM | IC50 (second compound 0.316 µM): > 10 µM | IC50 (second compound 1 µM): > 10 µM | IC50 (second compound 3.16 µM): > 10 µM | IC50 (second compound 10 µM): > 10 µM | viability, T/C [1]: 108% | viability, T/C [13]: 96.8% | viability, T/C [2]: 108% | viability, T/C [14]: 104% | viability, T/C [15]: 105% | viability, T/C [16]: 102% | viability, T/C [3]: 103% | viability, T/C [17]: 101% | viability, T/C [4]: 103% | viability, T/C [18]: 105% | viability, T/C [19]: 104% | viability, T/C [20]: 102% | viability, T/C [5]: 103% | viability, T/C [21]: 103% | viability, T/C [6]: 104% | viability, T/C [22]: 99.1% | viability, T/C [23]: 115% | viability, T/C [24]: 98.3% | viability, T/C [7]: 101% | viability, T/C [25]: 92.3% | viability, T/C [8]: 103% | viability, T/C [26]: 95% | viability, T/C [27]: 103% | viability, T/C [28]: 94% | viability, T/C [9]: 90.7% | viability, T/C [29]: 83.5% | viability, T/C [10]: 93.1% | viability, T/C [30]: 85.5% | viability, T/C [31]: 98.1% | viability, T/C [32]: 70.3% | viability, T/C [11]: 72.8% | viability, T/C [33]: 74.7% | viability, T/C [12]: 76% | viability, T/C [34]: 74.4% | viability, T/C [35]: 74.9% | viability, T/C [36]: 63.7%

Source: PubChem BioAssay AID2060491 (Molecular Pharmacology Branch, DTP, NCI, 2025)
